{"source": "paper PMC11864979", "about": "“First-in-class ultralong-target-residence-time p38α inhibitors as a mitosis-targeted therapy for colorectal cancer” (Nature Cancer, 2025)", "assay_in_all_cases": "selectivity profiling in a panel of 340 wild-type kinases (Reaction Biology Europe)", "type_in_all_cases": "binding", "key": {"340 wild-type kinases [1]": {"target": "T1, 340 wild-type kinases (Homo sapiens, UniProt Q9Y243)", "T1 construct": "purchased Reaction Biology Europe", "T1 sequence (Q9Y243 whole entry)": "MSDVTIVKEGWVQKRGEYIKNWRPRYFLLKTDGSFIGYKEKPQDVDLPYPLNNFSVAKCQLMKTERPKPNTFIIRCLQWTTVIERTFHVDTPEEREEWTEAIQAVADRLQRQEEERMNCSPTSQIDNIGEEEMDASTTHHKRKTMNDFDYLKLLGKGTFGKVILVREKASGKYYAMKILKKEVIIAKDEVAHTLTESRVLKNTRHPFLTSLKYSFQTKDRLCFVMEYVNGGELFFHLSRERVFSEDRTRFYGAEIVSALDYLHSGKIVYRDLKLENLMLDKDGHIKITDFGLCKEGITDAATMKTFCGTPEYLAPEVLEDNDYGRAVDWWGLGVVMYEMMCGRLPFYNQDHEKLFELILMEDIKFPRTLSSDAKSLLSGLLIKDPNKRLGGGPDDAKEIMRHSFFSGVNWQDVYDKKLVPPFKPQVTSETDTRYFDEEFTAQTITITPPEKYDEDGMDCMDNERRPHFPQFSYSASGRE"}, "340 wild-type kinases [2]": {"target": "T2, 340 wild-type kinases (Homo sapiens, UniProt P51957)", "T2 construct": "purchased Reaction Biology Europe", "T2 sequence (P51957 whole entry)": "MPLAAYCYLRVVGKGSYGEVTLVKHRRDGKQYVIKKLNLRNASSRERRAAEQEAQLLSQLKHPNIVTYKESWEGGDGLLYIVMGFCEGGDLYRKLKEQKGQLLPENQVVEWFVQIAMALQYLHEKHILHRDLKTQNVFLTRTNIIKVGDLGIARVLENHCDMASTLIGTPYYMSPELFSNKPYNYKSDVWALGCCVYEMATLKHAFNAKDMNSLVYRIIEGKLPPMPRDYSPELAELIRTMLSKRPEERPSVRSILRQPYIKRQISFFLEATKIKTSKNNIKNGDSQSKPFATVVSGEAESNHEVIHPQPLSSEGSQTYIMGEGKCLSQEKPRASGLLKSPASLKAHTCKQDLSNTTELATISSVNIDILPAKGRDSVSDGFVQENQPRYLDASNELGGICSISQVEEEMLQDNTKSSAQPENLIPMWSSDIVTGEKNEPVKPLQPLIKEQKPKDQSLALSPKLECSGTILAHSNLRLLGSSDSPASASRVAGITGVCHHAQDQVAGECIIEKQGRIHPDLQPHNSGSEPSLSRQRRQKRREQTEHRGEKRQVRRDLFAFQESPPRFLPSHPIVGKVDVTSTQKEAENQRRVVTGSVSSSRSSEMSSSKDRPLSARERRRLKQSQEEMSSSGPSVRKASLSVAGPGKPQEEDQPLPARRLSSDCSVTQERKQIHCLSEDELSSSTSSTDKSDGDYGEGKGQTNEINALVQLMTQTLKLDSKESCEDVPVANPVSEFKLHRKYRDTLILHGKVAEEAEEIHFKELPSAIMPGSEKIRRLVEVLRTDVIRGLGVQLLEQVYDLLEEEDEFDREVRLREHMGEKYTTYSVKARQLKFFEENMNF"}, "340 wild-type kinases [3]": {"target": "T3, 340 wild-type kinases (Homo sapiens, UniProt P37023)", "T3 construct": "purchased Reaction Biology Europe", "T3 sequence (P37023 22-503)": "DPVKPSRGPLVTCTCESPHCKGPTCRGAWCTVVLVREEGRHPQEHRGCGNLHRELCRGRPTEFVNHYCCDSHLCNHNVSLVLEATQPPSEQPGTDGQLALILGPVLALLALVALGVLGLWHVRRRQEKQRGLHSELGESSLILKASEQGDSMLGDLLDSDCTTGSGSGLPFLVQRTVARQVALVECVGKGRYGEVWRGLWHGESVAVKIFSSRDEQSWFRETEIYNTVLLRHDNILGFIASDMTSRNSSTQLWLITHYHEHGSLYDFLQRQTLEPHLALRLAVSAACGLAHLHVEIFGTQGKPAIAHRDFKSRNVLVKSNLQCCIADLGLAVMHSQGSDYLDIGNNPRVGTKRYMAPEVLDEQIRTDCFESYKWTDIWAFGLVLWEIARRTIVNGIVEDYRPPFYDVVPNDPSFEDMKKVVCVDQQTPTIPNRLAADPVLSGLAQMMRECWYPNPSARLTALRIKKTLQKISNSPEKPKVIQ"}, "340 wild-type kinases [4]": {"target": "T4, 340 wild-type kinases (Homo sapiens, UniProt Q9UBS0)", "T4 construct": "purchased Reaction Biology Europe", "T4 sequence (Q9UBS0 whole entry)": "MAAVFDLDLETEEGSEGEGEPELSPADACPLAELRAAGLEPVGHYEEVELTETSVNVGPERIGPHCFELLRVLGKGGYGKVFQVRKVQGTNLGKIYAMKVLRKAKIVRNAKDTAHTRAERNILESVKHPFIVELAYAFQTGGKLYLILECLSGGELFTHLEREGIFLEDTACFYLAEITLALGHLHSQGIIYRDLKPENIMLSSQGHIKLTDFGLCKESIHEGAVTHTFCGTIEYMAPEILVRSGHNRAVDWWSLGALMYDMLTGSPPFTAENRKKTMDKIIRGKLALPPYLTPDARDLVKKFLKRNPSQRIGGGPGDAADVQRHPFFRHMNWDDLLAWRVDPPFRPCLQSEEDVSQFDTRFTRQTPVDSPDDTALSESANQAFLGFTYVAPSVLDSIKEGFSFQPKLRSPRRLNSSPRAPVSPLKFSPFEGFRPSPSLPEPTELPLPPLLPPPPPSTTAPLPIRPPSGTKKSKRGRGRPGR"}, "340 wild-type kinases [5]": {"target": "T5, 340 wild-type kinases (Homo sapiens, UniProt P53355)", "T5 construct": "purchased Reaction Biology Europe", "T5 sequence (P53355 whole entry)": "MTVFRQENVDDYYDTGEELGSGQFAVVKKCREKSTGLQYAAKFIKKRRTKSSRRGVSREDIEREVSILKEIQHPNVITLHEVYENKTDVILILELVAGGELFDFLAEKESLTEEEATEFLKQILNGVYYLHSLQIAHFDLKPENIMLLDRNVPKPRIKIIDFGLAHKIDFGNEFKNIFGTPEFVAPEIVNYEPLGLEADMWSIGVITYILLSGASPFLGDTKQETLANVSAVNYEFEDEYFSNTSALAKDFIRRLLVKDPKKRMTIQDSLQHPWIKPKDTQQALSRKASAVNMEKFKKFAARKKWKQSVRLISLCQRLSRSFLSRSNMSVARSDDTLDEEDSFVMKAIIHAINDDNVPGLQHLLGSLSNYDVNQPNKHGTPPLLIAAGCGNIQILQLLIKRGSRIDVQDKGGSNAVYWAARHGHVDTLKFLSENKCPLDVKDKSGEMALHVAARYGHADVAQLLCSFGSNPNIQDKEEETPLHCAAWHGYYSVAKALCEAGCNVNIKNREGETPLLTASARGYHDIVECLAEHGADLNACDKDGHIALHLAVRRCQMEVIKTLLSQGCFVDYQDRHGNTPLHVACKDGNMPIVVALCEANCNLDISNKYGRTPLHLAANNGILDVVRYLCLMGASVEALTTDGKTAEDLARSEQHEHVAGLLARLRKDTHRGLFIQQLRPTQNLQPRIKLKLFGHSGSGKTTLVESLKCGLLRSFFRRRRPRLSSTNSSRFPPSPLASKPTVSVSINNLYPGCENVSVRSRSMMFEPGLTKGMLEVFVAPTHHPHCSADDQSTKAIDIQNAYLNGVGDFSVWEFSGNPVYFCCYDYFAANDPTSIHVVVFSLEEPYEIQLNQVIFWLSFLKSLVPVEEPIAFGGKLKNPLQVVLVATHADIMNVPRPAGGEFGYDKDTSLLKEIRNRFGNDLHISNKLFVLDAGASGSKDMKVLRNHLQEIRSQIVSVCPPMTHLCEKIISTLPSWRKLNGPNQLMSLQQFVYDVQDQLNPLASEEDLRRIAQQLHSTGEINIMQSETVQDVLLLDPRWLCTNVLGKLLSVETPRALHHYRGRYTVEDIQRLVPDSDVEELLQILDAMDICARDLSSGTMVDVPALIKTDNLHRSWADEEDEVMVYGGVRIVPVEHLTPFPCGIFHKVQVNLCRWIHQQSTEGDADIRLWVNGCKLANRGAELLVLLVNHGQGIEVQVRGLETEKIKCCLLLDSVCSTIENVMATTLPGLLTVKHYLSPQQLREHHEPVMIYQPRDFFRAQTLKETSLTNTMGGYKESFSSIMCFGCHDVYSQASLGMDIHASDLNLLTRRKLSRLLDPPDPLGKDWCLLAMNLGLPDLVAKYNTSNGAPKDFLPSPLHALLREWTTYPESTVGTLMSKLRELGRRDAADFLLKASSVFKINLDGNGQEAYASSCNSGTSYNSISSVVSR"}, "340 wild-type kinases [6]": {"target": "T6, 340 wild-type kinases (Homo sapiens, UniProt P09619)", "T6 construct": "purchased Reaction Biology Europe", "T6 sequence (P09619 33-1106)": "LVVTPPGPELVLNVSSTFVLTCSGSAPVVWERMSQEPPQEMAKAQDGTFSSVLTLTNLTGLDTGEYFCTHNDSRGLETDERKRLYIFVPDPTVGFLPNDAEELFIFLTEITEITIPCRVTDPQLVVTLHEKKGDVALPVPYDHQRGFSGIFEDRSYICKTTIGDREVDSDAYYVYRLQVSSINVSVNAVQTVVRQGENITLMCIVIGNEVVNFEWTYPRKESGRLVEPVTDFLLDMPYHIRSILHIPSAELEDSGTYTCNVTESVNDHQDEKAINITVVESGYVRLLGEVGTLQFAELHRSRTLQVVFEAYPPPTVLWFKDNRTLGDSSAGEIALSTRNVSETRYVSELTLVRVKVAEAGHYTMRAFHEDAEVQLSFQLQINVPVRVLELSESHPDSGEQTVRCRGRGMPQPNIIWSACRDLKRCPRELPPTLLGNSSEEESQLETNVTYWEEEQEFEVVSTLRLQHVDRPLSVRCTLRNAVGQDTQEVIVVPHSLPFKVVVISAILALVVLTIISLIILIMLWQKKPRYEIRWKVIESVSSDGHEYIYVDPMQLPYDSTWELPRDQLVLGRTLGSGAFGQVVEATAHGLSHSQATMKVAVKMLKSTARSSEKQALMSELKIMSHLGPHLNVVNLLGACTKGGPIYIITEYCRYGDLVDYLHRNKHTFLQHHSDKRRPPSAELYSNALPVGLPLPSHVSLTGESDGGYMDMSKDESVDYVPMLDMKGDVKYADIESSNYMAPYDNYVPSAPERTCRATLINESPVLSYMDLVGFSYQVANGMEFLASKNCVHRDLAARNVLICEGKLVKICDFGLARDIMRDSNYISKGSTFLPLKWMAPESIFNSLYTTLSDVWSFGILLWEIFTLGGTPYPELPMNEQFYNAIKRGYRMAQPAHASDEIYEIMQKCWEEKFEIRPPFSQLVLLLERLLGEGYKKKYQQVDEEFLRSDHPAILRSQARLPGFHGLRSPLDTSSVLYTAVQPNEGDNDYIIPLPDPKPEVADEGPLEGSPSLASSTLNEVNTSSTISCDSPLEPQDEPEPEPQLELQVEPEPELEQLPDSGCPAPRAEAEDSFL"}, "340 wild-type kinases [7]": {"target": "T7, 340 wild-type kinases (Homo sapiens, UniProt P54760)", "T7 construct": "purchased Reaction Biology Europe", "T7 sequence (P54760 16-987)": "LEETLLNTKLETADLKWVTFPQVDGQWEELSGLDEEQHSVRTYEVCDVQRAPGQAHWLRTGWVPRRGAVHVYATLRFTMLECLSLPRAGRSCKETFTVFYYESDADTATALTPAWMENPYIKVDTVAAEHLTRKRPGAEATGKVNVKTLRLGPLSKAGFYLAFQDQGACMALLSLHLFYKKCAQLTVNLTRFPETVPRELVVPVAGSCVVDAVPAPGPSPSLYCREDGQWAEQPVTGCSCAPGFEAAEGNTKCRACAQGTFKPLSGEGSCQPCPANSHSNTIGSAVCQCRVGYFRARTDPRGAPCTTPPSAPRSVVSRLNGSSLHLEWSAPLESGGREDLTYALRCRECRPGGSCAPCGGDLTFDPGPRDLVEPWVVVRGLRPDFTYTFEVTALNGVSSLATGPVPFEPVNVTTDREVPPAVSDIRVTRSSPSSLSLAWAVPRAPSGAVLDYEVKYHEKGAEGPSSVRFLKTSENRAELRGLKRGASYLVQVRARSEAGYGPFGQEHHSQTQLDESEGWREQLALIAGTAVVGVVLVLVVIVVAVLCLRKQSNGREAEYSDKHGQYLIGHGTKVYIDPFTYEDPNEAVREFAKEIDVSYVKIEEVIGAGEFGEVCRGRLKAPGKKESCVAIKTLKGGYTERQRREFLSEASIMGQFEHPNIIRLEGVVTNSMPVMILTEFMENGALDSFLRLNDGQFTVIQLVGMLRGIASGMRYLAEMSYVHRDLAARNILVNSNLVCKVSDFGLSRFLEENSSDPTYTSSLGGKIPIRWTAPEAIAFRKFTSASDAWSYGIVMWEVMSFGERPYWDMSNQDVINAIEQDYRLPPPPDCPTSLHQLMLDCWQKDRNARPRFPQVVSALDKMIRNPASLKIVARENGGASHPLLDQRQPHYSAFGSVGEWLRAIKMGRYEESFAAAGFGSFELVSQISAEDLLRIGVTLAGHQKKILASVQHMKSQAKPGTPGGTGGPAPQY"}, "340 wild-type kinases [8]": {"target": "T8, 340 wild-type kinases (Homo sapiens, UniProt O14757)", "T8 construct": "purchased Reaction Biology Europe", "T8 sequence (O14757 1-476)": "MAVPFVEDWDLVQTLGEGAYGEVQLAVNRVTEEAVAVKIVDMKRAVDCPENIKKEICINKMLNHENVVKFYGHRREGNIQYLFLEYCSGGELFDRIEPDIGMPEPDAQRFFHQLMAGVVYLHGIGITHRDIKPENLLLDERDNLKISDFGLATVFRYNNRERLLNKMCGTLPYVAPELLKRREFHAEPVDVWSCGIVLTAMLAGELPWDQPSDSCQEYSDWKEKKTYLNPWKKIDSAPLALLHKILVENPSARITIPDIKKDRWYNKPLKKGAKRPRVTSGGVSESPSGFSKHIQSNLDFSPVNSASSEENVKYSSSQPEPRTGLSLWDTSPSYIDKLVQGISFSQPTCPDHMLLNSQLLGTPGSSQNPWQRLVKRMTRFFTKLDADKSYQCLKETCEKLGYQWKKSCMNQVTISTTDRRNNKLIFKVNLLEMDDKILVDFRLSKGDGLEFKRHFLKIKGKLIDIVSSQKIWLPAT"}, "340 wild-type kinases [9]": {"target": "T9, 340 wild-type kinases (Homo sapiens, UniProt Q13043)", "T9 construct": "purchased Reaction Biology Europe", "T9 sequence (Q13043 1-487)": "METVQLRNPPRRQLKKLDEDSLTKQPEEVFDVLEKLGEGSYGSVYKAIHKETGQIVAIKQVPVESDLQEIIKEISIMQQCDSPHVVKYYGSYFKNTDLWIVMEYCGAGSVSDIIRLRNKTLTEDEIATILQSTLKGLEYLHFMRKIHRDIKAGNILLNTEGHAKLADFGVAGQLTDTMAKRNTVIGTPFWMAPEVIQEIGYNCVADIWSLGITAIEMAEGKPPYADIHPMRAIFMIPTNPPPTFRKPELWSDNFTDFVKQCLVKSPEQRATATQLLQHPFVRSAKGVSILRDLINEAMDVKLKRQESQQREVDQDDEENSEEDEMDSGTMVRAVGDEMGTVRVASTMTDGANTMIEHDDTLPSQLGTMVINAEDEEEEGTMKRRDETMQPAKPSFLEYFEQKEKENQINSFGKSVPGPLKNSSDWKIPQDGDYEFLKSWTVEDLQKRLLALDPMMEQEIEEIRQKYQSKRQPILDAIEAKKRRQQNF"}}, "note": "Read-outs that look alike come from different tables or passages of the source.", "data": [{"smiles": "CNC(=O)c1ccc2c(c1)C(=O)c1ccc(Nc3ccc(F)c(NC(=O)C4CC4)c3)cc1CC2", "note": "[Compound 2015]", "values": [{"measurement": "remaining activity at 0.2 µM", "setting": "340 wild-type kinases [1]; 0.2 µM 2015, read-out: AKT3 residual activity", "result": 96, "unit": "%"}, {"measurement": "remaining activity at 1 µM", "setting": "340 wild-type kinases [1]; 1 µM 2015, read-out: AKT3 residual activity", "result": 89.5, "unit": "%"}, {"measurement": "remaining activity at 0.2 µM", "setting": "340 wild-type kinases [1]; AKT3, 0.2 µM, read-out: residual activity", "result": 96, "unit": "%"}, {"measurement": "remaining activity at 1 µM", "setting": "340 wild-type kinases [1]; AKT3, 1 µM, read-out: residual activity", "result": 89.5, "unit": "%"}, {"measurement": "remaining activity at 0.2 µM", "setting": "340 wild-type kinases [2]; 0.2 µM 2015, read-out: NEK4 residual activity", "result": 105, "unit": "%"}, {"measurement": "remaining activity at 1 µM", "setting": "340 wild-type kinases [2]; 1 µM 2015, read-out: NEK4 residual activity", "result": 101, "unit": "%"}, {"measurement": "remaining activity at 0.2 µM", "setting": "340 wild-type kinases [2]; NEK4, 0.2 µM, read-out: residual activity", "result": 105, "unit": "%"}, {"measurement": "remaining activity at 1 µM", "setting": "340 wild-type kinases [2]; NEK4, 1 µM, read-out: residual activity", "result": 101, "unit": "%"}, {"measurement": "remaining activity at 0.2 µM", "setting": "340 wild-type kinases [3]; 0.2 µM 2015, read-out: ACVRL1 residual activity", "result": 100, "unit": "%"}, {"measurement": "remaining activity at 1 µM", "setting": "340 wild-type kinases [3]; 1 µM 2015, read-out: ACVRL1 residual activity", "result": 102, "unit": "%"}, {"measurement": "remaining activity at 0.2 µM", "setting": "340 wild-type kinases [3]; ACVRL1, 0.2 µM, read-out: residual activity", "result": 100, "unit": "%"}, {"measurement": "remaining activity at 1 µM", "setting": "340 wild-type kinases [3]; ACVRL1, 1 µM, read-out: residual activity", "result": 102, "unit": "%"}, {"measurement": "remaining activity at 0.2 µM", "setting": "340 wild-type kinases [4]; 0.2 µM 2015, read-out: S6Kbeta residual activity", "result": 108, "unit": "%"}, {"measurement": "remaining activity at 1 µM", "setting": "340 wild-type kinases [4]; 1 µM 2015, read-out: S6Kbeta residual activity", "result": 109, "unit": "%"}, {"measurement": "remaining activity at 0.2 µM", "setting": "340 wild-type kinases [4]; S6Kbeta, 0.2 µM, read-out: residual activity", "result": 108, "unit": "%"}, {"measurement": "remaining activity at 1 µM", "setting": "340 wild-type kinases [4]; S6Kbeta, 1 µM, read-out: residual activity", "result": 109, "unit": "%"}, {"measurement": "remaining activity at 0.2 µM", "setting": "340 wild-type kinases [5]; 0.2 µM 2015, read-out: DAPK1 residual activity", "result": 128, "unit": "%"}, {"measurement": "remaining activity at 1 µM", "setting": "340 wild-type kinases [5]; 1 µM 2015, read-out: DAPK1 residual activity", "result": 135, "unit": "%"}, {"measurement": "remaining activity at 0.2 µM", "setting": "340 wild-type kinases [5]; DAPK1, 0.2 µM, read-out: residual activity", "result": 128, "unit": "%"}, {"measurement": "remaining activity at 1 µM", "setting": "340 wild-type kinases [5]; DAPK1, 1 µM, read-out: residual activity", "result": 135, "unit": "%"}, {"measurement": "remaining activity at 0.2 µM", "setting": "340 wild-type kinases [6]; 0.2 µM 2015, read-out: PDGFRbeta residual activity", "result": 101, "unit": "%"}, {"measurement": "remaining activity at 1 µM", "setting": "340 wild-type kinases [6]; 1 µM 2015, read-out: PDGFRbeta residual activity", "result": 101, "unit": "%"}, {"measurement": "remaining activity at 0.2 µM", "setting": "340 wild-type kinases [6]; PDGFRbeta, 0.2 µM, read-out: residual activity", "result": 101, "unit": "%"}, {"measurement": "remaining activity at 1 µM", "setting": "340 wild-type kinases [6]; PDGFRbeta, 1 µM, read-out: residual activity", "result": 101, "unit": "%"}, {"measurement": "remaining activity at 0.2 µM", "setting": "340 wild-type kinases [7]; 0.2 µM 2015, read-out: EPHB4 residual activity", "result": 101, "unit": "%"}, {"measurement": "remaining activity at 1 µM", "setting": "340 wild-type kinases [7]; 1 µM 2015, read-out: EPHB4 residual activity", "result": 91.8, "unit": "%"}, {"measurement": "remaining activity at 0.2 µM", "setting": "340 wild-type kinases [7]; EPHB4, 0.2 µM, read-out: residual activity", "result": 101, "unit": "%"}, {"measurement": "remaining activity at 1 µM", "setting": "340 wild-type kinases [7]; EPHB4, 1 µM, read-out: residual activity", "result": 91.8, "unit": "%"}, {"measurement": "remaining activity at 0.2 µM", "setting": "340 wild-type kinases [8]; 0.2 µM 2015, read-out: CHK1 residual activity", "result": 88.2, "unit": "%"}, {"measurement": "remaining activity at 1 µM", "setting": "340 wild-type kinases [8]; 1 µM 2015, read-out: CHK1 residual activity", "result": 87.9, "unit": "%"}, {"measurement": "remaining activity at 0.2 µM", "setting": "340 wild-type kinases [8]; CHK1, 0.2 µM, read-out: residual activity", "result": 88.2, "unit": "%"}, {"measurement": "remaining activity at 1 µM", "setting": "340 wild-type kinases [8]; CHK1, 1 µM, read-out: residual activity", "result": 87.8, "unit": "%"}, {"measurement": "remaining activity at 0.2 µM", "setting": "340 wild-type kinases [9]; 0.2 µM 2015, read-out: MST1 residual activity", "result": 98.1, "unit": "%"}, {"measurement": "remaining activity at 1 µM", "setting": "340 wild-type kinases [9]; 1 µM 2015, read-out: MST1 residual activity", "result": 100, "unit": "%"}, {"measurement": "remaining activity at 0.2 µM", "setting": "340 wild-type kinases [9]; MST1, 0.2 µM, read-out: residual activity", "result": 98.1, "unit": "%"}, {"measurement": "remaining activity at 1 µM", "setting": "340 wild-type kinases [9]; MST1, 1 µM, read-out: residual activity", "result": 100, "unit": "%"}]}]}
